Test results published in patent US20100056637A1, “TREATMENT METHODS USING TRIARYL METHANE COMPOUNDS” (Icagen, Inc., priority 2005, published 2010).
Like-named read-outs stand apart in the source and are kept apart here.

Legend:
[1] = Inhaled allergen challenge in human subjects, placebo vs Senicapoc, 13 days; type: in vivo; settings: for fraction of exhaled nitric oxide: after 13 days of treatment, no change in placebo group
Method: FIG. 9. FIG. 9A study design. […] FIG. 9B. Change in FEV1 over time past allergen challenge (AC) in human subjects. The late allergen response (LAR) is the decline in FEV1 4 to 10 hours after patients were challenged with an inhaled allergen. The magnitude of the decline in LAR is quantified as the area bounded by the baseline FEV1 (0%), and the actual FEV1 measurements between hours 4 and 10. Subjects randomized to 13 days of treatment with placebo had no change in the LAR (left panel). […] By analysis of co-variance, the difference in LAR at Day 13 between the two treatment groups was 29%.
By analysis of co-variance, the difference in late airway responsiveness between the two treatment groups was 29% (see, FIG. 9B). In addition, the fraction of nitric oxide exhaled by Senicapoc-treated group declined with no change seen in the placebo group (data not shown).

recombinant human KCa3.1 = recombinant human KCa3.1 (Homo sapiens, UniProt O15554); experiment: Whole patch clamp of potassium currents in CHO cells stably expressing recombinant human KCa3.1; type: cell-based; settings: 1000 nM Senicapoc; FIG. 2 right panel; cell type not stated
[2] = Pharmacokinetics of Senicapoc in sheep plasma; type: in vivo; settings: 30 mg/kg po b.i.d.; relative to levels required to block KCa3.1
Method: Since statistically significant effects were observed on lung resistance and airway hyper-reactivity following the 30 mg/kg dose, this level of exposure is sufficient to achieve efficacy in the sheep model. FIG. 7 illustrates exposure in man following administration of a range of doses. The average efficacious plasma level from the sheep model is illustrated by the dashed line.

A. suum sensitized sheep = experiment: Ascaris suum allergen challenge model of asthma in sheep; type: in vivo
Method: Briefly, baseline lung resistance (RL) and carbachol concentration response curves were obtained prior to A. suum challenge in sheep. […] Lung resistance was subsequently measured at 0, 1, 2, 3, and 4 hours post allergen challenge to assess early airway responses and at 5, 6, 6.5, 7, 7.5 and 8 hours to assess late airway responses. At 24 hours post challenge, airway hyper-reactivity was determined based on responses to increasing doses of carbachol. Data were analyzed by a one way ANOVA followed by Dunnett's post hoc test when more than 2 groups were compared, or by a t-test when only 2 groups were compared.

Half-life in blood = type: in vitro ADME; settings: including human blood
Description: Triphenylacetamide-based K^+-channel blockers are promising candidates for the treatment of sickle cell disease (SCD) as discussed in U.S. Pat. No. 6,288,122 which is herein incorporated by reference. In addition, studies indicate that triphenylacetamide-based inhibitors are potential candidate drugs for the treatment of inflammatory conditions.

[3] = cited from earlier work; for mean Cmax / mean total systemic dose / oral clearance rate / terminal half-life: patients with sickle cell disease
[4] = tested on: human lung mast cells (HLMC); experiment: HLMC chemotaxis (mast cell migration) assay, Transwell system; type: cell-based; settings: airway smooth muscle-conditioned media; 10, 100, 1000 nM; 3 hours
Method: Mast cell migration studies were then performed by a method similar to as described in the method of Cruse et al. (Thorax. 2006 61:880-5). Briefly, HLMC chemotaxis assays were performed using the Transwell system with 24 wells. Airway smooth muscle-conditioned media was placed in the lower wells. […] After incubating the cells for 3 hours at 37° C., the number of HLMC in the bottom well were counted using Kimura stain in a hemocytometer. HLMC migration was calculated as the fold increase of migrated cells in the test wells compared with the negative control containing no chemoattractant in the lower well (FIG. 1).

## NC(=O)C(c1ccccc1)(c1ccc(F)cc1)c1ccc(F)cc1 [Senicapoc, 2,2-bis(4-fluorophenyl)-2-phenylacetamide]
[1]; Day 13, 80 mg BID for three days, then 40 mg daily, analysis of co-variance
  difference in late airway responsiveness (LAR, FEV1 decline 4 to 10 hours) between Senicapoc and placebo groups: 29%
[1]
  fraction of exhaled nitric oxide: declined
[1]; listed as senicapoc
  fraction of exhaled nitric oxide: decreased
Recombinant human KCa3.1
  channel inhibition with varied voltage: nearly complete channel inhibition
[2]
  plasma exposure corrected for protein binding: sustained levels significantly above those required to block KCa3.1
A. suum sensitized sheep; 30 mg/kg PO for 4 days
  reversal of the hyper-reactivity to carbachol: Complete reversal
A. suum sensitized sheep; 30 mg/kg PO, not statistically significant
  apparent reduction in peak early response: 33%
A. suum sensitized sheep; 5-8 hours after allergen challenge, oral, IV and inhalation routes
  average late allergen responses (lung resistance): significantly attenuates
A. suum sensitized sheep; 24 hours post A. suum challenge, all three routes of administration
  hyper-reactivity to aerosolized carbachol: significantly reduced
A. suum sensitized sheep; acute 10 mg/kg IV dosing
  reversal of the hyper-reactivity to carbachol: Complete reversal
A. suum sensitized sheep; immediately after allergen challenge, 10 mg/kg IV
  peak early airway responses: significantly reduced
Half-life in blood
  half-life in blood: long half-life
[3]; oral dose, across three clinical studies, 68 patients
  mean elimination half-life: 12 to 17 days
[3]; 50 mg single dose
  mean Cmax: 59.1 ng/mL
  mean total systemic dose: 11,826 ng·hr/ml
  oral clearance rate: 4.75 L/h
  terminal half-life: 15.4 days
[3]; 100 mg single dose
  mean Cmax: 108.7 ng/mL
  mean total systemic dose: 19,696 ng·hr/ml
  oral clearance rate: 6.1 L/h
  terminal half-life: 9.12 days
[3]; 150 mg single dose
  mean Cmax: 109.1 ng/mL
  mean total systemic dose: 30,675 ng·hr/ml
  oral clearance rate: 5.8 L/h
  terminal half-life: 12.4 days
[3]; phase I clinical studies
  drug-related serious adverse events: no drug-related serious adverse events
[4]
  HLMC migration resulting from inflammatory stimuli: inhibits
